Test results from patent US9498451B2, “Method for treating or preventing radiation damage” (Beijing Institute of Transfusion Medicine, Academy of …, priority 2013, dated 2016).
Entries after “also recorded” stand apart in the source; their conditions may differ.

Columns and labels:
[1] = test system: mice radiated by 60Co γ-ray with a sub-lethal dosage; test: Contents of WBC, RBC and PLT in peripheral blood of mice radiated by 60Co γ-ray with a sub-lethal dosage (6.5 Gy); assay type: in vivo, mouse (male C57); settings: 2.5 mg/kg every three days for 5 times, vs PBS group
Procedure: 10 male C57 mice were subjected to whole body irradiation by ^60Co γ ray with a dosage rate of 1.56 Gy/min and an irradiation dosage of 6.5 Gy. The radiated mice were divided into 2 groups randomly, a PBS group having 5 mice and a TA01 group having 5 mice. Every mouse in the TA01 group was injected with 2.5 mg/kg (body weight) TA01 every three days for 5 times, and the solvent of the injection was a PBS solution. Every mouse in the PBS group was treated with the same process as the TA01 group, with the exception that the injection amount of TA01 was 0, in other words, only the PBS solution was injected. After different days for treating, each group of the mice was subjected to a cutting-tail process to collect 20 μL blood which was subsequently added with 2 mL blood cell dilution (commercially available from Jinan Bolai Biotechnology Co., Ltd).
FIG. 3 is diagrams showing contents of WBC, RBC and PLT in peripheral blood of mice radiated by ^60Co γ-ray with a sub-lethal dosage and injected subcutaneously with TA01 or PBS (control) at different time points.

[2] = test system: hemopoietic stem/progenitor cells in bone marrow; test: Number of hemopoietic stem/progenitor cells (CFU, CFU-G, CFU-GM, CFU-MK) in bone marrow of sub-lethally radiated mice; assay type: in vivo, mouse (male C57/BL6); settings: 6.5 Gy; 2.5 mg/kg every three days; bone marrow on 7th day, 7 days culture; vs control group
Procedure: 6 male C57/BL6 mice were subjected to whole body irradiation by ^60Co γ ray with a dosage rate of 1.56 Gy/min and an irradiation dosage of 6.5 Gy. The radiated mice were divided into 2 groups randomly, a PBS group having 3 mice and a TA01 group having 3 mice. Every mouse in the TA01 group was injected with 2.5 mg/kg TA01 (body weight) every three days, the solvent of the injection was a PBS solution with pH from 7.5 to 8.5. TA01 injection dosage for the PBS group was 0, in other words, only the PBS solution was injected. On the 7th day after the subcutaneous injection, bone marrow blood was collected from each mouse into respective 10 mL tubes pretreated with heparin (commercially available from Tianjing Haoyang Biological Product Technology Limited Liability Company). After the bone marrow blood was mixed with the heparin uniformly, fresh PBS (commercially available from Hyclone Company) was added therein up to 5 mL. After mixing, a uniform mixture of blood and PBS was obtained. Mouse lymphocyte separation medium (commercially available from Tianjing Haoyang Biological Product Technology Limited Liability Company) were subjected to pre-aliquot in centrifuge tubes each having 5 mL of the lymphocyte separation medium (operating in a super clean bench). Then the uniform mixture was gently added on the top of the lymphocyte separation medium, after which a centrifuge was performed at 1500 rpm/min for 20 min. The intermediate layer of cells in a white color was sucked into a new 10 mL centrifuge tube, which was then added with PBS up to 10 mL followed by a mixing and centrifuge at 1500 rpm/min for 5 min. Then obtained upper PBS was removed, and the tube was added with fresh PBS up to 10 ml followed by a mixing and centrifuge at 1500 rpm/min for 5 min. Then the upper PBS was removed, and the tube was added with fresh PBS up to 1 mL followed by a mixing, which was then subjected to a cell number counting. After calculating the number of single nucleus per mL blood, the blood was mixed uniformly with 500 μL semisolid medium (including 0.9% methylcellulose, 15% fetal bovine serum, 100 U/ml penicillin/streptomycin, 1 mM sodium pyruvate, 2 mM glutaminate, 2 mM PFHM II, 200 m/ml transferrin, 1% BSA, 0.45 mM MTG, 30% IMDM, 50 ng/ml SCF, 10 ng/ml TPO, 10 ng/ml IL-3, 10 ng/ml IL-11, 10 ng/ml GM-CSF and 3 U/ml EPO), and cultured in an incubator containing 5% CO2 at 37° C. After 7 days, hematopoietic colony-forming unit (CFU), granulocyte colony-forming unit (CFU-G), granulocyte and macrophage colony-forming unit (CFU-GM) and megakaryocyte colony-forming unit (CFU-MK) were counted respectively, and the results were shown in FIG. 4. […]

[3] = test system: mice radiated by 60Co γ-ray with a lethal dosage; test: Survival rate of mice radiated by 60Co γ ray with a lethal dosage (8.0 Gy) and injected with TA01; assay type: in vivo, mouse (male C57BL/6); settings: 8.0 Gy 60Co whole body irradiation, vs control group
Procedure: 50 male C57BL/6 mice were subjected to whole body irradiation by ^60Co ray with a dosage rate of 1.56 Gy/min and an irradiation dosage of 8.0 Gy. The radiated mice were divided into 5 groups randomly, each group having 10 mice. The 5 groups were injected with TA01 with dosages of 0 mg/kg (control group), 1.25 mg/kg, 2.5 mg/kg, 5 mg/kg and 10 mg/kg, respectively. The injection was performed every three days and continued for 12 days, and the solvent of the injection was a PBS solution. Then, these mice were observed and survival rates of these mice were calculated.
FIG. 2 is a diagram showing survival rates (rates of survival) of mice radiated by ^60Co γ-ray with a lethal dosage and subcutaneously injected with different dosages of TA01.

[4] = test system: mice radiated by 60Co γ-ray with a lethal dosage; test: HE staining of intestinal, hepatic and pulmonary tissues of mice radiated by 60Co γ-ray with a lethal dosage (8.0 Gy); assay type: in vivo, mouse (male C57/BL6); settings: 2.5 mg/kg every three days, vs PBS group
Procedure: 6 male C57/BL6 mice were subjected to whole body irradiation by ^60Co γ ray with a dosage rate of 1.56 Gy/min and an irradiation dosage of 8.0 Gy. The radiated mice were divided into 2 groups randomly, a PBS group (control) having 3 mice and a TA01 group having 3 mice. Every mouse in the TA01 group was injected with 2.5 mg/kg TA01 (body weight) every three days, the solvent of the injection was a PBS solution with pH of 7.4. TA01 injection dosage for the PBS group was 0, in other words, only the PBS solution was injected. The mice both two groups were sacrificed by dislocation on the 10th day and the 14th day after the irradiation, respectively. The intestinal, hepatic and pulmonary tissues were collected, fixed with 4% paraformaldehyde and formed into paraffin sections. The paraffin sections were subjected to HE staining, so as to obserse repairing conditions of the intestinal, hepatic and pulmonary tissues, and the results were shown in FIGS. 5 and 6.
FIG. 5 is diagrams showing results of hematoxylin-eosin staining with intestinal tissues of mice radiated by ^60Co γ-ray with a lethal dosage and treated with TA01 or PBS.
FIG. 6 is diagrams showing results of hematoxylin-eosin staining with hepatic and pulmonary tissue of mice radiated by ^60Co γ-ray with a lethal dosage and treated with TA01 or PBS.

## CN(C)CCN(CCN(C)C)CCN(C)C [TA01, tris(2-(dimethylamino)ethyl)amine]
[1]; on the 4th, 7th and 21st day
  content of WBC in peripheral blood: significantly increased
[1]; on the 4th, 14th, 21st and 28th day
  content of PLT in peripheral blood: significantly increased
[1]; on the 21st day
  content of RBC in peripheral blood: most obviously increased
[2]
  number of CFU-G in bone marrow: increased obviously
  number of CFU-GM in bone marrow: increased obviously
  number of CFU-MK in bone marrow: increased obviously
  number of total colony-forming units (CFU) in bone marrow: increased significantly
[3]; TA01 1.25 mg/kg every three days for 5 times
  survival rate: significantly increased
[3]; TA01 2.5 mg/kg every three days for 5 times, 2.5 mg/kg
  survival rate: significantly increased; also recorded: best survival rate
[3]; TA01 5 mg/kg every three days for 5 times
  survival rate: significantly increased
[3]; TA01 10 mg/kg every three days for 5 times
  survival rate: significantly increased
[4]; 10th and 14th day
  repair of intestinal tissue (HE staining): improve repairs
[4]
  repair of hepatic tissue (HE staining): improve repairs
  repair of pulmonary tissue (HE staining): improve repairs
